Measurements taken from publication PMC6054424, “Expression and purification of a functional heteromeric GABAA receptor for structural studies” (PLoS ONE, 2018).

B1: GluClα-EGFP (α subunit of the glutamate-gated chloride channel from C. elegans, EGFP in the M3/M4 loop) (receptor, UniProt G5EBR3 21-461, looked up)
chain: QQARTKSQDIFEDDNDNGTTTLESLARLTSPIHIPIEQPQTSDSKILAHLFTSGYDFRVRPPTDNGGPVVVSVNMLLRTISKIDVVNMEYSAQLTLRESWIDKRLSYGVKGDGQPDFVILTVGHQIWMPDTFFPNEKQAYKHTIDKPNVLIRIHNDGTVLYSVRISLVLSCPMYLQYYPMDVQQCSIDLASYAYTTKDIEYLWKEHSPLQLKVGLSSSLPSFQLTNTSTTYCTSVTNTGIYSCLRTTIQLKREFSFYLLQLYIPSCMLVIVSWVSFWFDRTAIPARVTLGVTTLLTMTAQSAGINSQLPPVSYIKAIDVWIGACMTFIFCALLEFALVNHIANKQGVERKARTEREKAEIPLLQNLHNDVPTKVFNQEEKVRTVPLNRRQMNSFLNLLETKTEWNDISKRVDLISRALFPVLFFVFNILYWSRFGQQNVLF
notes: glutamate-gated chloride channel α subunit (GluClα), C. elegans; source: Xenopus oocytes injected with synthetic mRNA, in C12M-solubilised oocytes; not shown: EGFP, internal (M3/M4 loop)

Assays:
[1] = molecular target: T1, GABAA receptor α1/β1 (α1 subunit) (Rattus norvegicus, UniProt P15431+P62813, P15431:DEL334-439/P15431:INS334GT/P62813:DEL341-408/P62813:INS341T); test: radioligand saturation binding by scintillation proximity assay on purified receptor in L-MNG
T1 construct: gene Gabra1; purified α1/β1 receptor with M3/M4 loop truncations (α1-LT: Y341-P408 replaced with Thr; β1-LT: K334-K439 replaced with Gly-Thr), C-terminal His8 tag; with GABAA receptor β1 subunit (Gabrb1, P15431)
T1 sequence (P62813 with tags, fused parts or gaps DEL341-408/INS341T): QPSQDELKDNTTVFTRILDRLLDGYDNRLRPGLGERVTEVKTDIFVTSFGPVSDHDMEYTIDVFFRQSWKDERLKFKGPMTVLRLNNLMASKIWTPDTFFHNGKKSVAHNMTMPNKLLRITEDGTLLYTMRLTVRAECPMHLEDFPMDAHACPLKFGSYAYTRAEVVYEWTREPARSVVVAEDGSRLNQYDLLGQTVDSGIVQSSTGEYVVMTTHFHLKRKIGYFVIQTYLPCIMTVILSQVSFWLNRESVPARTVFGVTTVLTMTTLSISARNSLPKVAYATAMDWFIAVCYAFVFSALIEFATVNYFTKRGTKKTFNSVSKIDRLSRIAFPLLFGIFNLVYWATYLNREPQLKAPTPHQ
T1 sequence (P15431 with tags, fused parts or gaps DEL334-439/INS334GT): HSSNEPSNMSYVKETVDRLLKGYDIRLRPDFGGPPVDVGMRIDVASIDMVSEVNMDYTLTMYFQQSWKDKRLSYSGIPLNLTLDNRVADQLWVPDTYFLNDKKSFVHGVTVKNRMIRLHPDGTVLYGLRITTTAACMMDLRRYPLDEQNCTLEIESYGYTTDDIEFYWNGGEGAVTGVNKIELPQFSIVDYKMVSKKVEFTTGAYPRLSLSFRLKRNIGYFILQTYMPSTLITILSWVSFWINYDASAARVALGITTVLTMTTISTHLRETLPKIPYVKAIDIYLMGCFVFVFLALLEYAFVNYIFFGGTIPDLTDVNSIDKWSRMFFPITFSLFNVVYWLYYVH

[2] = molecular target: the molecule itself; test: SEC; fluorescence detection SEC (FSEC) of 8-12 oocytes solubilised with 40 mM C12M; Superose6 10/300 GL in TBS pH 8.0, 1 mM C12M, 1 mM EDTA; GFP fluorescence of the tagged subunit followed; ferritin and EGFP as standards

Molecule	Kd [1] [nM]	stoichiometry N [2]
NCc1cc(=O)[nH]o1 [muscimol]	24 ± 1.1	–
B1	–	5
